Where two headings read alike, the source gives them in different places. Values belong to the compound of their own block, whether it stands above or below them.
Assays:
[1] = tested on: glucosylceramide synthase; assay: Glucosylceramide synthase radioenzymatic assay on microsomes of Tet-on GCS-transfected clones; assay type: cell-based, human
Description: Glucosylceramide Synthase Assay. To determine the expression of GCS in the hygromycin-resistant clones, a modified radioenzymatic assay was utilized (Lavie, 1997; Shukla, 1990). After incubation in the absence or presence of doxycycline (3 μg/ml, 48 hr), cells were homogenized by sonication in lysis buffer (50 mM Tris-HCl, pH 7.4, 1.0 μg/ml leupeptin, 10 μg/ml aprotinin, 25 μM PMSF). Microsomes were isolated by centrifugation (129,000×g, 60 min). The enzyme assay, containing 50 μg microsomal protein, in a final volume of 0.2 ml, was performed in a shaking water bath at 37° C. for 60 min. The reaction contained liposomal substrate composed of C6-ceramide (1.0 mM), phosphatidylcholine (3.6 mM, MW 786.15), and brain sulfatides (0.9 mM, MW 563). The liposomal substrate was prepared by mixing the components, evaporating the solvents under a stream of nitrogen, and sonicating in water over ice for 1-min using a microtip at 50% output (Kontes, Micro Ultrasonic Cell Disrupter). Other reaction components included sodium phosphate buffer (0.1 M) pH 7.8, EDTA (2.0 mM), MgCl2 (10 mM), dithiothreitol (1.0 mM), β-NAD (2.0 mM), and [^3H]UDP-glucose (0.5 mM). Radiolabeled and unlabeled UDP-glucose were diluted to achieve the desired radiospecific activity (4,700 dpm/nmol). To terminate the reaction, tubes were placed on ice and 0.5 ml isopropanol and 0.4 ml Na2SO4 were added. After brief vortex mixing, 3 ml t-butyl methyl ether was added and the tubes were mixed for 30 sec. After centrifugation, 0.5 ml upper phase which contained GC, was withdrawn and mixed with 4.5 ml EcoLume for analysis of radioactivity by liquid scintillation spectroscopy.
After co-transfection of pTRE-GCS and pTK-Hyg into clone 1 and clone 16 of MCF-7 Tet-on cells, 65 hygromycin-resistant clones were selected. […] Compared with a basal level of 17.2±0.1 pmol GC in MCF-7 wt cells, doxycycline-induced GCS activity in MCF-7/GCS12, […] and MCF-7/GCS14 was to 167.4±17.2, 183.3±12.4, and 90.2±2.76 pmol GC, respectively (FIG. 13A). There were no differences in either basal or doxycycline-induced GCS activity in transfection control cells (TC) or in the basal level of GCS in MCF-7 wt cells (FIG. 13A). In MCF-7/GCS13 and MCF-7/GCS14, the doxycycline-inducible GCS activities were 1.6-fold and 4.1-fold, respectively, above untreated cells. The MCF-7/GCS14 clone was designated MCF-7/GCS, and this clone was used in further experiments.

GCS mRNA = assay: Northern blot of GCS mRNA expression in MCF-7/GCS cells; assay type: cell-based, human
Description: (A) Northern Blot showing regulated expression of GCS mRNA in MCF-7 and MCF-7/GCS cells incubated with the indicated concentrations of doxycycline (dox, μg/ml). Total RNA per lane was 15 micrograms. Ethidium bromide-stained RNA (28 S) was used as a control for even loading. Densities of GCS/28 S RNA (×100) in MCF-7/GCS cells were 16, 18, 97, 256 at 0, 0.1, 1.0 and 3.0 μg/ml doxycycline, respectively. (B) Dose-response of GCS activity to doxycycline. Cells were incubated for 96 hr in medium containing the indicated concentrations of doxycycline. GCS activity was analyzed by radioenzymatic assay. * p<0.01, **p<0.001 compared with MCF-7 cells. (C) Doxycycline-induced resistance to ceramide. Cells were pretreated with the indicated concentrations of doxycycline for 48 hr, seeded in 96-well plates, and treated the following day with 5 μM C6ceramide in RPMI-1640 medium containing 5% FBS. Cell viability was determined after 96 hr. Data represent the mean ±SD of six replicates from two independent experiments. Control cells were cultured in medium without C6-ceramide. * p<0.001 compared to MCF-7 cells; **p<0.001, compared to MCF-7 cells exposed to 1.0 μg/ml doxycycline.
RNA Analysis. RNA was extracted from cells using the single-step method described by Chomczynski and Sacchi (Chomczynski, 1987). Equal amounts of total RNA (15 μg) were denatured in 59% formamide/2.2 M formaldehyde, size separated by electrophoresis on 1% agarose-formaldehyde, and then blotted onto nitrocellulose-plus (Sambrook, 1989). GCS cDNA was prepared from pCG-2 plasmid, digested with EcoR I, and Hind III (Stratagene, La Jolla, Calif.). […]
If ceramide resistance is induced by GCS expression in MCF-7/GCS cells, the resistance response should be tightly correlated with the level of the inducer, doxycycline. It was determined that increasing doxycycline concentrations correlated closely with increased expression of GCS, which in turn correlated well with increased resistance of the cells to C6ceramide. […]

MCF-7-wt cells = assay: Cytotoxicity assay (Promega) in chemosensitive wild-type breast cancer cells; assay type: cell-based, human; conditions: C6-ceramide at increasing concentrations, 72 hr
MCF-7/GCS cells = assay type: cell-based, human; conditions: MCF-7/GCS vs MCF-7
Description: (§1) Cytotoxicity Assay. The assay was performed as previously described (Lavie, 1997). […] Cultures were incubated at 37° C. for 24 hr before addition of drug. Drugs were added in FBS-free medium (0.1 ml), and cells were cultured at 37° C. for the indicated periods. Drug cytotoxicity was determined using the Promega 96 Aqueous cell proliferation assay kit. Absorbance at 490 nm was recorded using an ELISA reader (Molecular Devices, San Diego, Calif.).
(§2) Adriamycin was used to assess the influence of GCS transfection on cellular response to anthracyclines. After pretreatment with doxycycline for two days, MCF-7/GCS cells were incubated with increasing concentrations of adriamycin for four days. […] It was observed that MCF-7/GCS cells were resistant to ceramide toxicity as well. […] However, the EC50 in the TC group was nearly identical with that of MCF-7 cells, there being no statistical difference between the two groups (FIG. 14C).

MCF-7 cells = assay: cells; assay type: cell-based; conditions: Homo sapiens, MCF7, 96 h, read-out: EC50 (cytotoxicity)
Description: as §1, §2

MCF-7-AdrR cells [2] = assay: cells; conditions: Homo sapiens, read-out: cell viability
MCF-7-AdrR cells [3] = assay: Cell radiolabeling and TLC/LSC analysis of ceramide, glucosylceramide and sphingomyelin in MDR breast cancer cells; assay type: cell-based, human; conditions: adriamycin 2.5, PSC 833 5.0 μM, tamoxifen 5.0 μM alone or combined, 24 h, [3H]palmitic acid
Description: Cells. Experiments were conducted using the human MDR breast cancer cell line, MCF-7 AdrR (adriamycin resistant) provided by Drs. Kenneth H. Cowan and Merrill E. Goldsmith, National Cancer Institute. Cells were grown in RPMI-1640 medium containing 10% FBS (fetal bovine serum) and antibiotics as previously described (Lavie, 1997) and cultures were maintained in a humidified 6.5% CO2 atmosphere incubator. Trypsin (0.05%) and EDTA (0.5 mM) were used for subculture. Plastic tissue cultureware, was from Costar (96-well plates) and Corning (6-well plates, 6-cm dishes, T-75 flasks). Limited experiments were conducted using the human MDR epidermoid carcinoma cell line, KBV-1, provided by Dr. Michael M. Gottesman, National Cancer Institute. Cells were maintained as described (Lavie, 1996). Vinblastine was eliminated from the culture medium during the experiments.
Cell Radiolabeling and Lipid/Glycolipid Analysis. To follow lipid metabolism, cells were grown in the presence of tritiated ceramide precursors, L-[^3H]serine (20 Ci/mmol) (American Radiolabeled Chemicals, Inc., St. Louis), and [9, 10-^3H]palmitic acid (50 Ci/mmol) (DuPont NEN). Labeling media were prepared by adding microliter amounts of tritiated compounds (supplied in ethanol or sterile water) to medium containing only 5% FBS. After radiolabeling, 0.1 ml aliquots of medium were removed and analyzed by LSC (Lavie, 1997), in order to determine cellular uptake of the tritiated compounds. Cell monolayers were then rinsed twice with cold phosphate-buffered saline. Ice cold methanol containing 2% acetic acid was added, and cells were scraped free of the substratum (plastic scraper) for lipid extraction using chloroform and water in 1-dram glass vials as described (Lavie, 1997; Lavie, 1996; Bligh and Dyer, 1959). After centrifugation, the resulting organic lower phase of the biphasic extraction was withdrawn, transferred to a glass vial, and evaporated to dryness under a stream of nitrogen.
Radioactivity in glucosylceramide was analyzed by TLC resolution of total lipids (Silica Gel G) using a solvent system containing chloroform/methanol/ammonium hydroxide (80:20:2, v/v/v). Migration of glucosylceramide on TLC was compared with that of commercial standard (glucocerebrosides, Gaucher's spleen, Matreya, Inc., Pleasant Gap, Pa.), and lipid spots, after iodine vapor visualization, were scraped for tritium quantitation by LSC (Lavie, 1997; Lavie, 1996). […] Ceramide and sphingomyelin commercial standards (brain-derived) were from Avanti Polar Lipids, Alabaster, Ala. After iodine visualization of lipids, areas of the chromatogram corresponding to ceramide and sphingomyelin were scraped into minivials containing 0.5 ml water followed by 4.5 ml EcoLume (ICN, Costa Mesa, Calif.), and samples were analyzed for tritium by liquid scintillation spectrometry. Alternative analysis of ceramide consisted of subjecting an aliquot of the total cell lipid extract to mild alkaline hydrolysis (0.1 N KOH in methanol, 1 h at 37° C.) followed by re-extraction (Lavie, 1997). […] The same can also be done without tritium by simply applying 100-200 μg total cell lipid to TLC plates and developing them in the appropriate solvent, then spraying them with 30% H2SO4, charring the plate in an oven at 180° C. for 20 min, and measuring lipid mass by densitometry.

Compound: C[C@H]1c2cccc(O)c2C(=O)C2=C(O)[C@]3(O)C(=O)C(C(N)=O)=C(O)[C@@H](N(C)C)[C@@H]3[C@@H](O)[C@@H]21.Cl [doxycycline, Doxycycline hydrochloride]
- doxycycline-induced GCS activity ([1]; clone MCF-7/GCS3 (so in the source), doxycycline 3 μg/ml): 183.3±12.4 pmol GC
- doxycycline-induced GCS activity ([1]; clone MCF-7/GCS12, doxycycline 3 μg/ml): 167.4±17.2 pmol GC
- doxycycline-inducible GCS activity above untreated cells ([1]; clone MCF-7/GCS13): 1.6 fold
- doxycycline-inducible GCS activity above untreated cells ([1]; clone MCF-7/GCS14): 4.1 fold
- doxycycline-induced GCS activity ([1]; clone MCF-7/GCS14, doxycycline 3 μg/ml): 90.2±2.76 pmol GC
- GCS mRNA density (GCS band/28 S RNA×100) (GCS mRNA; doxycycline 0.1 μg/ml): 18
- GCS mRNA density (GCS band/28 S RNA×100) (GCS mRNA; doxycycline 1.0 μg/ml): 97
- GCS mRNA density (GCS band/28 S RNA×100) (GCS mRNA; doxycycline 3.0 μg/ml): 256

- EC50 in MCF-7/GCS cells relative to EC50 in MCF-7 cells (MCF-7/GCS cells): 4 fold
- EC50 in MCF-7/GCS cells relative to EC50 in MCF-7 cells (MCF-7/GCS cells; listed as ceramide): 5 fold
Compound: CCCCCCCCCCCCC/C=C/[C@@H](O)[C@H](CO)NC(=O)CCCCC [C6-ceramide, N-hexanoylsphingosine]
- cell viability, dose-response (MCF-7-wt cells): dose dependent decrease in viability
- EC50 (MCF-7 cells): 3.1 ± 0.5 µM
- viability at 10 µM (MCF-7-AdrR cells [2]; 72 h): 84%
- viability at 5 µM (MCF-7-AdrR cells [2]): 86%

Compound: CC/C(=C(\c1ccccc1)c1ccc(OCCN(C)C)cc1)c1ccccc1 [tamoxifen, Tamoxifen]
- ceramide level, increase over control (MCF-7-AdrR cells [3]): 0.3 fold
